Where a name gives a salt, the structure may show the parent alone.

Chain of BCL-XL (Q07817 other isoform, or with tags, fused parts or gaps): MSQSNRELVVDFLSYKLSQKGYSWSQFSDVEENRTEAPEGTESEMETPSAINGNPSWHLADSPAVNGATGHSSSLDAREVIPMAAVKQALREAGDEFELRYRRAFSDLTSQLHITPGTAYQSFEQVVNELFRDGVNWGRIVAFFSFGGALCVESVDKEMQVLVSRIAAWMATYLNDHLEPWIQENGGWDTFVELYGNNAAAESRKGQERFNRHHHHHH

For this assay, the target named is BCL-XL (Homo sapiens (Human), UniProt Q07817). Description: Protein-protein interaction assay BCL-XL/Bad BH3 peptide (BCL-XL assay, TR-FRET). Particulars: His-BCL-XL / Bad BH3 peptide, median. Type of assay: binding. The procedure:
Assay 2 Protein-Protein Interaction Assay: BCL-XL/Bad BH3 Peptide (BCL-XL Assay)
The dose-dependent inhibition by the compounds described in this invention of the interaction between BCL-XL and the BH3 domain of Bad (both human) was determined using a steady state binding competition assay with time-resolved fluorescence energy transfer (TR-FRET) readout. For that purpose BCL-XL (amino acids 1-212, C-terminal fused to a hexahistidine (6×His) tag (SEQ ID 3) and a synthetic Bad BH3-derived peptide of sequence Biotin-PEG2-PEG2-NLWAAQRYGRELRR-Nle-SDEFVDSFKK-amide (SEQ ID 4) served as protein receptor and tracer ligand respectively. The recombinant BCL-XL protein (expressed in E. coli) was purchased from BPS Bioscience (San Diego, Calif., USA). The Bad BH3-derived peptide can be obtained from e.g. Biosyntan (Berlin, Germany).
In the assay 11 different concentrations of each compound (0.1 nM, 0.33 nM, 1.1 nM, 3.8 nM, 13 nM, 44 nM, 0.15 μM, 0.51 μM, 1.7 μM, 5.9 μM and 20 μM) were typically measured as duplicates in the same microtiter plate. For that, 100-fold concentrated DMSO solutions were prepared by serial dilutions (1:3.4) of a 2 mM stock solution in a clear, 384-well microtiter plate (Greiner Bio-One, Frickenhausen, Germany). From there, 50 nl were transferred in a dark test plate (Greiner Bio-One, Frickenhausen, Germany). The assay was initiated by addition of 2 μl of a 2.5-fold concentrated His-BCL-XL solution (usually for a 1 nM end concentration in 5 μl reaction volume) in aqueous assay buffer [50 mM Tris/HCl pH 7, 100 mM sodium chloride (NaCl), 50 mM potassium fluoride (KF), 0.005% Tween-20, 2 mM DTT, 0.1% bovine gamma globulin (BGG)] to the compounds in the assay plate. This was followed by a 10-minute incubation step at 22° C. for pre-equilibration of the putative complex between His-BCL-XL and the compounds. After that, 3 μl of a 1.67-fold concentrated solution (in assay buffer) consisting of Bad BH3-derived peptide (1 nM end concentration) and TR-FRET detection reagents [1.67 nM anti-His-Eu cryptate and 1.67 nM streptavidin-XL665 (both from Cisbio Bioassays, Codolet, France)], were added.
The mixture was incubated in the dark for one hour at 22° C. and then overnight at 4° C. The formation of BCL-XL/Bad complexes was determined by measuring the resonance energy transfer of the anti-His- Eu-cryptate antibody to the streptavidin-XL665 present in the reaction. For that purpose, the fluorescence emission at 620 nm and 665 nm after excitation at 330-350 nm was measured in a TR-FRET measuring instrument, for instance a Rubystar or a Pherastar (both from BMG Lab Technologies, Offenburg, Germany) or a Viewlux (Perkin-Elmer). The ratio of the emission at 665 nm and at 622 nm was used as indicator of the amount of BCL-XL/Bad complexes present.
The resulting data (ratio) were normalized, taking 0% inhibition as the mean value of control measurements (usually 32 data points) where all reagents were included. In this case 50 nl DMSO were used instead of compounds. A 100% inhibition corresponded to the mean value of control measurements (usually 32 data points) where all reagents except BCL-XL were included. IC50 values were determined by regression analysis based on a 4 parameter equation (minimum, maximum, IC50, Hill; Y=Max+(Min−Max)/(1+(X/IC50)^HiII) using the Screener Software (Genedata).
A general note: TR-FRET usually uses a lanthanide donor and a delayed reading to cut background.
With `Cc1c2c(nn1C)CN(C1CC1)S(=O)(=O)CCCn1c(C(=O)O)c(CCCOc3cccc4cc(F)ccc34)c3ccc(Cl)c-2c31` (single isomer, unassigned; enantiomer 2) [Example 43, (+)-4-chloro-14-cyclopropyl-7-{3-[(6-fluoro-1-naphthyl)oxy]propyl}-2,3-dimethyl-11,12,14,15-tetrahydro-2H,10H-pyrazolo[3′,4′:4,5][1,2,8]thiadiazacycloundecino[6,7,8-hi]indole-8-carboxylic acid 13,13-dioxide N-diethylamine salt (Enantiomer 2)], the IC50 (in general, the concentration needed to halve the response being measured) is greater than 20 µM.
`Cc1c2c(nn1C)CN(C)S(=O)(=O)CCCn1c(C(=O)O)c(CCCOc3cccc4cc(F)ccc34)c3ccc(F)c-2c31` (single isomer, unassigned; enantiomer 2) [Example 39, (+)-4-fluoro-7-{3-[(6-fluoronaphthalen-1-yl)oxy]propyl}-2,3,14-trimethyl-13,13-dioxo-10,11,12,13,14,15-hexahydro-2H-13lambda^6-pyrazolo[3′,4′:4,5][1,2,8]thiadiazacycloundecino-[6,7,8-hi]indole-8-carboxylic acid (Enantiomer 2)] yielded an IC50 greater than 20 µM.
Under `Cc1c2c(nn1C)CN(C1CC1)S(=O)(=O)CCCn1c(C(=O)O)c(CCCOc3cccc4cc(F)ccc34)c3ccc(Cl)c-2c31` (single isomer, unassigned; enantiomer 1) [Example 42, (−)-4-chloro-14-cyclopropyl-7-{3-[(6-fluoro-1-naphthyl)oxy]propyl}-2,3-dimethyl-11,12,14,15-tetrahydro-2H,10H-pyrazolo[3′,4′:4,5][1,2,8]thiadiazacycloundecino[6,7,8-hi]indole-8-carboxylic acid 13,13-dioxide N-diethylamine salt (Enantiomer 1)] stands 18 µM.
With `CCc1c2c(nn1C)CN(C)S(=O)(=O)CCCn1c(C(=O)O)c(CCCOc3cccc4ccccc34)c3ccc(F)c-2c31` (racemic) [Example 31, (rac)-12-Ethyl-13-fluoro-8,11-dimethyl-1-(3-(naphthalen-1-yloxy)propyl)-5,6,9,11-tetrahydro-4H,8H-pyrazolo[3′,4′:4,5][1]thia[2,8]diazacycloundecino[6,7,8-hi]indole-2-carboxylic acid 7,7-dioxide], the IC50 was greater than 20 µM.
On to `Cc1c2c(nn1C)CN(C)S(=O)(=O)CCCn1c(C(=O)O)c(CCCOc3ccc(F)c4ccccc34)c3ccc(F)c-2c31` [Example 30, (rac)-13-Fluoro-1-(34(4-fluoronaphthalen-1-yl)oxy)propyl)-8,11,12-trimethyl-5,6,9,11-tetrahydro-4H,8H-pyrazolo[3′,4′:4,5][1]thia[2,8]diazacycloundecino[6,7,8-hi]indole-2-carboxylic acid 7,7-dioxide], for which the IC50 was greater than 20 µM.
Under `CCc1c2c(nn1C)CN(CCCN1CCOCC1)S(=O)(=O)CCCn1c(C(=O)O)c(CCCOc3cccc4ccccc34)c3cccc-2c31` (racemic) [Example 15, (rac)-12-Ethyl-11-methyl-8-(3-morpholinopropyl)-1-(3-(naphthalen-1-yloxy)propyl)-4,5,6,8,9,11-hexahydropyrazolo[3′,4′:4,5][1,2,8]thiadiazacycloundecino[6,7,8-hi]indole-2-carboxylic acid 7,7-dioxide 2,2,2-trifluoroacetic acid salt] stands greater than 20 µM.
In the case of `CCc1c2c(nn1C)CN(C1CC1)S(=O)(=O)CCCn1c(C(=O)O)c(CCCOc3cccc4cc(F)ccc34)c3ccc(Cl)c-2c31` (racemic) [Example 53, (rac)-4-chloro-14-cyclopropyl-3-ethyl-7-{3-[(6-fluoro-1-naphthyl)oxy]propyl}-2-methyl-11,12,14,15-tetrahydro-2H,10H-pyrazolo[3′,4′:4,5][1,2,8]thiadiazacycloundecino[6,7,8-hi]indole-8-carboxylic acid 13,13-dioxide], inhibition was half-maximal at 16 µM (IC50).
Regarding `Cc1c2c(nn1C)CN(C)S(=O)(=O)CCCn1c(C(=O)O)c(CCCOc3cccc4c3CCC4)c3ccc(F)c-2c31` (racemic) [Example 27, (rac)-1-(3-((2,3-Dihydro-1H-inden-4-yl)oxy)propyl)-13-fluoro-8,11,12-trimethyl-5,6,9,11-tetrahydro-4H,8H-pyrazolo[3′,4′:4,5][1]thia[2,8]diazacycloundecino[6,7,8-hi]indole-2-carboxylic acid 7,7-dioxide], the IC50 is greater than 20 µM.
In turn, `Cc1c2c(nn1C)CN(C)S(=O)(=O)CCCn1c(C(=O)O)c(CCCOc3cccc4cc(F)ccc34)c3ccc(F)c-2c31` (single isomer, unassigned; enantiomer 1) [Example 38, (−)-4-fluoro-7-{3-[(6-fluoronaphthalen-1-yl)oxy]propyl}-2,3,14-trimethyl-13,13-dioxo-10,11,12,13,14,15-hexahydro-2H-13lambda^6-pyrazolo[3′,4′:4,5][1,2,8]thiadiazacycloundecino-[6,7,8-hi]indole-8-carboxylic acid (Enantiomer 1)] had an IC50 greater than 20 µM.
Consider `Cc1c2c(nn1C)C(CCN1CCOCC1)N(C)S(=O)(=O)CCCn1c(C(=O)O)c(CCCOc3cccc4cc(F)ccc34)c3ccc(Cl)c-2c31` (single isomer, unassigned; enantiomer 1) [Example 66, 4-chloro-7-{3-[(6-fluoronaphthalen-1-yl)oxy]propyl}-2,3,14-trimethyl-15-[2-(morpholin-4-yl)ethyl]-13,13-dioxo-10,11,12,13,14,15-hexahydro-2H-13lambda^6-pyrazolo[3′,4′:4,5][1,2,8]thiadiazacycloundecino[6,7,8-hi]indole-8-carboxylic acid (Enantiomer 1)], for which the IC50 was greater than 20 µM.
As for `Cc1c2c(nn1C)CN(C)S(=O)(=O)CCCn1c(C(=O)O)c(CCCOc3cccc4cc(F)ccc34)c3ccc(F)c-2c31` (racemic) [Example 25, (rac)-13-Fluoro-1-(3-((6-fluoronaphthalen-1-yl)oxy)propyl)-8,11,12-trimethyl-5,6,9,11-tetrahydro-4H,8H-pyrazolo[3′,4′:4,5][1]thia[2,8]diazacycloundecino[6,7,8-hi]indole-2-carboxylic acid 7,7-dioxide], the IC50 was greater than 20 µM.
In the case of `CCc1c2c(nn1C)CN(C)S(=O)(=O)CCCn1c(C(=O)O)c(CCCOc3ccc(F)c4ccccc34)c3ccc(F)c-2c31` (racemic) [Example 35, (rac)-12-Ethyl-13-fluoro-1-(34(4-fluoronaphthalen-1-yl)oxy)propyl)-8,11-dimethyl-5,6,9,11-tetrahydro-4H,8H-pyrazolo[3′,4′:4,5][1]thia[2,8]diazacycloundecino[6,7,8-hi]indole-2-carboxylic acid 7,7-dioxide] it was greater than 20 µM.
For the compound `Cc1c2c(nn1C)C(N1CCOCC1)CCN(C)S(=O)(=O)CCCn1c(C(=O)O)c(CCCOc3cccc4cc(F)ccc34)c3ccc(Cl)c-2c31` (racemic) [Example 47, (rac)-15-chloro-1-(3-((6-fluoronaphthalen-1-yl)oxy)propyl)-8,13,14-trimethyl-11-(rac)-morpholino-5,6,9,10,11,13-hexahydro-4H,8H-pyrazolo[3′,4′:6,7][1]thia[2,10]diazacyclotridecino[8,9,10-hi]indole-2-carboxylic acid 7,7-dioxide (Mixture of Stereoisomers)], the IC50 was greater than 20 µM.

For the origin of these results see patent US11401278B2, “Macrocyclic indole derivatives” (The Broad Institute, Inc., priority 2017, dated 2022).
